In US6117645A, “Human LH-RH receptor expression cells and use thereof” (Takeda Chemical Industries, Ltd., priority 1994, dated 2000):

Target: T1, human LH-RH receptor (Homo sapiens, UniProt P30968)
T1 construct: cell membrane fraction or whole cells
T1 sequence (P30968 1-328): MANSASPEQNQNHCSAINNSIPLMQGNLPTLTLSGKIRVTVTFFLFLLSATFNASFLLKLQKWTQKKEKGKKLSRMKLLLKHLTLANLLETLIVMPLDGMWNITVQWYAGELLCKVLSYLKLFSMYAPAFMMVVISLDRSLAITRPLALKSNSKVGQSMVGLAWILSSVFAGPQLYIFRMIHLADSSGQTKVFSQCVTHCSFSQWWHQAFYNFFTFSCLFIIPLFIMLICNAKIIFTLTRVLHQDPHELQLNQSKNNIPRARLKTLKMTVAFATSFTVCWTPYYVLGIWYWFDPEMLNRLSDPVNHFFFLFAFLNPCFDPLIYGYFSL
Experiment: [125I]-leuprorelin binding inhibition, CHO cell membrane fraction
Conditions: 2 μl of 2 mM compound in 60% DMSO added to 188 μl of 200 μg/ml membrane fraction with 10 μl of 3.6 nM [125I]-leuprorelin; 25° C., 60 minutes
Experimental: The human LH-RH receptor expression cells (10^9 cells) obtained in Example 2 were suspended in phosphate buffered saline containing 5 mM EDTA (PBS-EDTA), and centrifuged at 100×g for 5 minutes. To cell pellets, 10 ml of a cell homogenating buffer (10 mM NaHCO3, 5 mM EDTA, pH 7.5) was added, followed by homogenization with a Polytron homogenizer. After centrifugation at 400×g for 15 minutes, the supernatant was placed in an ultracentrifugal tube, and centrifuged at 100,000×g for 1 hour to obtain a cell membrane fraction precipitate. This precipitate was suspended in 2 ml of an assay buffer, and centrifuged at 100,000×g for 1 hour. The cell membrane fraction recovered as a precipitate was suspended in 20 ml of the assay buffer again. The suspension was dispensed and stored at -80° C. It was defrosted at every time of use. […]
Using the human LH-RH receptor expression CHO cell membrane fraction, reaction was conducted at 25° C. for 60 minutes. […] After the filtration, the radioactivity of [^125 I]-leuprorelin left on the filter was measured with a gamma-ray counter.
The binding inhibition rate of each sample to be tested was determined according to the following equation: [formula] wherein SB represents the radioactivity when the compound is added, TB represents the maximum binding radioactivity, and NSB represents the non-specific binding radioactivity.

CCOC(=O)c1cn(Cc2ccccc2OC)c2sc(-c3ccc(OC)cc3)c(C)c2c1=O [Reference Example 9]
inhibition at 2000 µM (stock): 67%
